Values of other authors as cited in patent publication US20060024247A1, “Oral care formulations comprising highly bioavailable Coenzyme Q-10 cyclodextrin complex” (BioActives, LLC, priority 2004, published 2006).

bioavailability: very poor | solubility in water: practically insoluble in water
Structure (SMILES): COC1=C(OC)C(=O)C(C/C=C(\C)CC/C=C(\C)CC/C=C(\C)CC/C=C(\C)CC/C=C(\C)CC/C=C(\C)CC/C=C(\C)CC/C=C(\C)CC/C=C(\C)CCC=C(C)C)=C(C)C1=O [CoQ-10, Coenzyme Q-10]
